According to patent publication US11802133B2, “Heterocyclic compounds as monoacylglycerol lipase inhibitors” (Hoffmann-La Roche Inc., priority 2018, dated 2023):

molecular target: MAGL (Homo sapiens (Human), UniProt Q99685); assay: 2-AG assay: MAGL inhibitory activity by hydrolysis of 2-arachidonoylglycerol to arachidonic acid (mass spectrometry); format: biochemical; conditions: measured in 2-AG assay (footnote [b]); 8 μM 2-arachidonoylglycerol
Description: Alternatively, compounds were profiled for MAGL inhibitory activity by determining the enzymatic activity by following the hydrolysis of the natural substrate 2-arachidonoylglycerol resulting in arachidonic acid, which can be followed by mass spectrometry. This assay is hereinafter abbreviated “2-AG assay”.
A C18 SPE cartridge (G9205A) was used in an acetonitrile/water liquid setup. […] The activity of the compounds was calculated based on the ratio of intensities [arachidonic acid/d8-arachidonic acid].

MAGL, sequence (Q99685 whole entry, species assumed): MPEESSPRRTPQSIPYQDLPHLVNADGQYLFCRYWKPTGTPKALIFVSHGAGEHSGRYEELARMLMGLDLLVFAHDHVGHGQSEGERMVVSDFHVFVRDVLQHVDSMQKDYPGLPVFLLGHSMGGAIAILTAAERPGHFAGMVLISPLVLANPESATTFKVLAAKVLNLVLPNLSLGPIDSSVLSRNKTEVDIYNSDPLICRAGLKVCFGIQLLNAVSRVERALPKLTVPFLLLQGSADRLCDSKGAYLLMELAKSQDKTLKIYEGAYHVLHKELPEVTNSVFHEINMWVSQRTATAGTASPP

`O=C1CO[C@H]2CCN(C(=O)N3CC(OCc4ccc(Cl)cc4Cl)C3)C[C@H]2N1` [Example 87] and `O=C1CO[C@H]2CCN(C(=O)N3CC(OCc4cc(Cl)ccc4Cl)C3)C[C@H]2N1` [Example 225] are within 1.5-fold of each other in IC50: 6 nM for the first, 7 nM for the second.

Compared with `COc1cc(COC2CN(C(=O)N3CC[C@@H]4OCC(=O)N[C@@H]4C3)C2)ccc1C(F)(F)F` [Example 88], `Cc1ccc(COC2CN(C(=O)N3CC[C@@H]4OCC(=O)N[C@@H]4C3)C2)c(C(F)(F)F)c1` [Example 217] is 2-fold higher in IC50: 5 nM for the first, 10 nM for the second.

Compared with `Cc1cc(OCC2CCN(C(=O)N3CC[C@@H]4OCC(=O)N[C@@H]4C3)CC2)cnc1C(F)(F)F` [Example 89], `Cc1cc(OC[C@@H]2CCN(C(=O)N3CC[C@@H]4OCC(=O)N[C@@H]4C3)C[C@@H]2C)cnc1C(F)(F)F` [Example 231] is 6.8-fold lower in IC50: 34 nM for the first, 5 nM for the second.

Compared with `O=C1CO[C@H]2CCN(C(=O)N3CCC(COc4cccc(Cl)c4)C3)C[C@H]2N1` (some centres unmarked) [Example 90], `O=C1CO[C@H]2CCN(C(=O)N3CCC(COc4ccccc4Cl)C3)C[C@H]2N1` (some centres unmarked) [Example 91] is 1.7-fold lower in IC50: 168 nM for the first, 99 nM for the second. The second is the more potent here.

Going from `O=C1CO[C@H]2CCN(C(=O)N3CCC(Cc4ccc(C(F)(F)F)cc4F)CC3)C[C@H]2N1` [Example 92] to `O=C1CO[C@H]2CCN(C(=O)N3CCC(Cc4ccc(C(F)(F)F)cc4OCC(F)(F)F)CC3)C[C@H]2N1` [Example 202], the IC50 rises from 14 nM to 54 nM (3.9-fold).

`O=C1CO[C@H]2CCN(C(=O)N3CC(Oc4ccc(C(F)(F)F)cc4)C3)C[C@H]2N1` [Example 118] and `O=C1CO[C@H]2CCN(C(=O)N3CC(Oc4ccc(Cl)c(C(F)(F)F)c4)C3)C[C@H]2N1` [Example 204] are within 1.5-fold of each other in IC50: 132 nM for the first, 100 nM for the second.

`O=C1CO[C@H]2CCN(C(=O)N3CCC(Oc4ccc(Cl)c(C(F)(F)F)c4)CC3)C[C@H]2N1` [Example 119] and `O=C1CO[C@H]2CCN(C(=O)N3CCC(Oc4ccc(C(F)(F)F)c(Cl)c4)CC3)C[C@H]2N1` [Example 255] are within 1.5-fold of each other in IC50: 14 nM for the first, 10 nM for the second.

First: O=C1CO[C@H]2CCN(C(=O)N3CCC(Oc4ccc(Cl)c(C5CC5)c4)CC3)C[C@H]2N1 [Example 120]
Second: O=C1CO[C@H]2CCN(C(=O)N3CC(Oc4ccc(Cl)c(C5CC5)c4)C3)C[C@H]2N1 [Example 256]
The IC50 of the first is 1.6-fold lower: 7 nM for the first, 11 nM for the second. The first is the more potent here.

Compared with `O=C1CO[C@H]2CCN(C(=O)N3CCC(Oc4ccc(Cl)c(N5CCOCC5)c4)CC3)C[C@H]2N1` [Example 121], `O=C1CO[C@H]2CCN(C(=O)N3CCC(Oc4ccc(C(F)(F)F)c(N5CCOCC5)c4)CC3)C[C@H]2N1` [Example 206] is 6.6-fold lower in IC50: 151 nM for the first, 23 nM for the second.

Going from `Cc1cc(C(F)(F)F)ccc1OC1CCN(C(=O)N2CC[C@@H]3OCC(=O)N[C@@H]3C2)CC1` [Example 122] to `O=C1CO[C@H]2CCN(C(=O)N3CCC(Oc4ccc(C(F)(F)F)cc4F)CC3)C[C@H]2N1` [Example 254], the IC50 rises from 8 nM to 64 nM (8-fold). The first is the more potent here.

First: N#Cc1cc(C(F)(F)F)ccc1OC1CCN(C(=O)N2CC[C@@H]3OCC(=O)N[C@@H]3C2)CC1 [Example 123]
Second: O=C1CO[C@H]2CCN(C(=O)N3CCC(Oc4cccc(C(F)(F)F)c4Cl)CC3)C[C@H]2N1 [Example 257]
The IC50 of the first is 5.9-fold higher: 82 nM for the first, 14 nM for the second. The second is the more potent here.

Going from `O=C1CO[C@H]2CCN(C(=O)N3CCC(Cc4nc5ccncc5o4)CC3)C[C@H]2N1` [Example 124] to `O=C1CO[C@H]2CCN(C(=O)N3CCC(Cc4c(F)cc(C(F)(F)F)cc4F)CC3)C[C@H]2N1` [Example 211], the IC50 falls from 1040 nM to 17 nM (61-fold). The second is the more potent here.

`O=C1CO[C@H]2CCN(C(=O)N3CCCC(COc4ccc(F)cc4Cl)CC3)C[C@H]2N1` (some centres unmarked) [Example 140] and `O=C1CO[C@H]2CCN(C(=O)N3CCCC(Cc4ccc(C(F)(F)F)cc4)CC3)C[C@H]2N1` (some centres unmarked) [Example 142] are within 1.5-fold of each other in IC50: 59 nM for the first, 75 nM for the second.

First: O=C1CO[C@H]2CCN(C(=O)N3CCCC(COc4ccc(F)cc4Cl)CC3)C[C@H]2N1 (some centres unmarked) [Example 141]
Second: O=C1CO[C@H]2CCN(C(=O)N3CCC(Oc4ccc(Cl)cc4)CC3)C[C@H]2N1 [Example 210]
The IC50 of the first is 2-fold lower: 40 nM for the first, 80 nM for the second. The first is the more potent here.

First: O=C1CO[C@H]2CCN(C(=O)N3CCC(Oc4cc(-n5cccn5)cc(C(F)(F)F)c4)CC3)C[C@H]2N1 [Example 201]
Second: O=C1CO[C@H]2CCN(C(=O)N3CCC(Oc4cc(-n5cncn5)cc(C(F)(F)F)c4)CC3)C[C@H]2N1 [Example 203]
The IC50 of the first is 3.6-fold lower: 239 nM for the first, 871 nM for the second. The first is the more potent here.

Going from `O=C1CO[C@H]2CCN(C(=O)N3CCC(Oc4ccc(Cl)c(-n5cccn5)c4)CC3)C[C@H]2N1` [Example 205] to `O=C1CO[C@H]2CCN(C(=O)N3CCC(Oc4ccc(Cl)c(-n5cncn5)c4)CC3)C[C@H]2N1` [Example 207], the IC50 falls from 86 nM to 50 nM (1.7-fold).

First: O=C1CO[C@H]2CCN(C(=O)N3CCC(Oc4ccc(C(F)(F)F)c(C5CC5)c4)CC3)C[C@H]2N1 [Example 208]
Second: O=C1CO[C@H]2CCN(C(=O)N3CC(Oc4ccc(C(F)(F)F)c(C5CC5)c4)C3)C[C@H]2N1 [Example 260]
The IC50 of the first is 6-fold lower: 3 nM for the first, 18 nM for the second. The first is the more potent here.

`O=C1CO[C@H]2CCN(C(=O)N3CCC(Oc4ccc(C(F)(F)F)c(-n5cccn5)c4)CC3)C[C@H]2N1` [Example 209] and `O=C1CO[C@H]2CCN(C(=O)N3CC(Oc4ccc(C(F)(F)F)cc4Cl)C3)C[C@H]2N1` [Example 213] are within 1.5-fold of each other in IC50: 74 nM for the first, 98 nM for the second.

First: O=C1CO[C@H]2CCN(C(=O)N3CCC(Oc4ccc(Cl)c(-c5ccc(Cl)cc5)c4F)CC3)C[C@H]2N1 [Example 212]
Second: O=C1CO[C@H]2CCN(C(=O)N3CC(Oc4cccc(C5CC5)c4Cl)C3)C[C@H]2N1 [Example 259]
The IC50 of the first is 5-fold lower: 3 nM for the first, 15 nM for the second.

Going from `COc1cccc(C(F)(F)F)c1CCC1CN(C(=O)N2CC[C@@H]3OCC(=O)N[C@@H]3C2)C1` [Example 218] to `Cc1ccc(CCC2CN(C(=O)N3CC[C@@H]4OCC(=O)N[C@@H]4C3)C2)c(C(F)(F)F)c1` [Example 219], the IC50 falls from 3 nM to 2 nM (1.5-fold).

Going from `CC(=O)c1cc(C(F)(F)F)ccc1CCC1CN(C(=O)N2CC[C@@H]3OCC(=O)N[C@@H]3C2)C1` [Example 220] to `O=C1CO[C@H]2CCN(C(=O)N3CC(OCc4ccc(C(F)(F)F)cc4C(F)(F)F)C3)C[C@H]2N1` [Example 249], the IC50 rises from 3 nM to 5 nM (1.7-fold). The first is the more potent here.

Going from `O=C1CO[C@H]2CCN(C(=O)N3CC(COc4cc(C(F)(F)F)cc(F)n4)C3)C[C@H]2N1` [Example 222, (4aR,8aS)-6-[3-[[6-Fluoro-4-(trifluoromethyl)-2-pyridyl]oxymethyl]azetidine-1-carbonyl]-4,4a,5,7,8,8a-hexahydropyrido[4,3-b][1,4]oxazin-3-one] to `O=C1CO[C@H]2CCN(C(=O)N3CC(COc4ccc(C(F)(F)F)c(F)n4)C3)C[C@H]2N1` [Example 223, (4aR,8aS)-6-[3-[[6-Fluoro-5-(trifluoromethyl)-2-pyridyl]oxymethyl]azetidine-1-carbonyl]-4,4a,5,7,8,8a-hexahydropyrido[4,3-b][1,4]oxazin-3-one], the IC50 falls from 143 nM to 75 nM (1.9-fold). The second is the more potent here.

First: O=C1CO[C@H]2CCN(C(=O)N3CC(OCc4ccc(Cl)c(Cl)c4)C3)C[C@H]2N1 [Example 224]
Second: O=C1CO[C@H]2CCN(C(=O)N3CC(OCC4(c5ccc(Cl)cc5Cl)CC4)C3)C[C@H]2N1 [Example 241]
The IC50 of the first is 5-fold lower: 3 nM for the first, 15 nM for the second. The first is the more potent here.

First: O=C1CO[C@H]2CCN(C(=O)N3CC(OCc4ccc(C(F)(F)F)cn4)C3)C[C@H]2N1 [Example 230]
Second: O=C1CO[C@H]2CCN(C(=O)N3CC(OCc4cc(C(F)(F)F)c(C(F)(F)F)cn4)C3)C[C@H]2N1 [Example 234]
The IC50 of the first is 36-fold higher: 73 nM for the first, 2 nM for the second.

First: Cc1cc(OC[C@H]2CCN(C(=O)N3CC[C@@H]4OCC(=O)N[C@@H]4C3)C[C@H]2C)cnc1C(F)(F)F [Example 232]
Second: Cc1cc(OC(F)(F)F)ccc1COC1CN(C(=O)N2CC[C@@H]3OCC(=O)N[C@@H]3C2)C1 [Example 251]
The IC50 of the first is 12-fold higher: 61 nM for the first, 5 nM for the second. The second is the more potent here.

Going from `O=C1CO[C@H]2CCN(C(=O)N3CC(OCc4ccc(S(F)(F)(F)(F)F)cc4F)C3)C[C@H]2N1` [Example 240] to `Cc1c(COC2CN(C(=O)N3CC[C@@H]4OCC(=O)N[C@@H]4C3)C2)cccc1C(F)(F)F` [Example 250], the IC50 falls from 16 nM to 8 nM (2-fold). The second is the more potent here.

`O=C1CO[C@H]2CCN(C(=O)N3CC(OCc4cc(C(F)(F)F)cc(Oc5ccc(F)cc5)n4)C3)C[C@H]2N1` [Example 242] and `O=C1CO[C@H]2CCN(C(=O)N3CC(OCc4ccc(C(F)(F)F)c(Oc5ccc(F)cc5)n4)C3)C[C@H]2N1` [Example 243] are within 1.5-fold of each other in IC50: 12 nM for the first, 10 nM for the second.

Going from `O=C1CO[C@H]2CCN(C(=O)N3CC(OCc4nc(-c5ccc(F)cc5)cs4)C3)C[C@H]2N1` [Example 244] to `O=C1CO[C@H]2CCN(C(=O)N3CC(Oc4cccc(Br)c4Cl)C3)C[C@H]2N1` [Example 258], the IC50 rises from 30 nM to 48 nM (1.6-fold).

Compared with `O=C1CO[C@H]2CCN(C(=O)N3CCC(OCc4ccc(C(F)(F)F)cc4F)(C(F)(F)F)C3)C[C@H]2N1` (some centres unmarked) [Example 245], `CC1C(Oc2cc(C(F)(F)F)ccc2Br)CCN1C(=O)N1CC[C@@H]2OCC(=O)N[C@@H]2C1` (some centres unmarked) [Example 246] is 1.7-fold lower in IC50: 1700 nM for the first, 1000 nM for the second. The second is the more potent here.

First: C[C@@H]1[C@@H](Oc2cc(C(F)(F)F)ccc2Br)CCN1C(=O)N1CC[C@@H]2OCC(=O)N[C@@H]2C1 [Example 247]
Second: C[C@H]1[C@H](Oc2cc(C(F)(F)F)ccc2Br)CCN1C(=O)N1CC[C@@H]2OCC(=O)N[C@@H]2C1 [Example 248]
The IC50 of the first is 1.8-fold higher: 1100 nM for the first, 607 nM for the second.

First: Cc1cc(OC(F)(F)F)ccc1COC1CN(C(=O)N2CC[C@@H]3OCC(=O)N[C@@H]3C2)C1C (some centres unmarked) [Example 252]
Second: Cc1c(COC2CN(C(=O)N3CC[C@@H]4OCC(=O)N[C@@H]4C3)C2C)cccc1C(F)(F)F (some centres unmarked) [Example 253]
The IC50 of the first is 2-fold lower: 5 nM for the first, 10 nM for the second.
